Assay: UV titration of ter-cyclopentane tetra-amino acid derivatives with lipid A
Assay type: binding, Salmonella minnesota
Details: for binding to lipid A in UV titration, in words: aqueous solution, concentrations below the cmc of lipid A / >20 micromolar in lipid A
Experimental: A 600 microliter, 0.9 μM solution of the ter-cyclopentane tetra-amino acid derivative in water (pH=5.0) or phosphate-buffered saline (PBS, pH=7.4) was allowed to equilibrate in a 1.0-ml masked wall UV cell at ambient temperature (22° C.), in a Shimadzu 1600-PC UV spectrophotometer. […] After each addition, the solution was allowed to equilibrate for a minimum of 5 minutes, then scanned for absorbance 550-220 nm.

Row | Molecule | binding to lipid A in UV titration, in words | lipid A binding affinity compared with polymyxins
1 | NCC(=O)OCC1CC(COC(=O)CN)C(C2CCC(C3C(COC(=O)CN)CC(COC(=O)CN)C3COC(=O)c3ccccc3)C2)C1COC(=O)c1ccccc1 (stereo not shown) [Compound 7.1, tetra-glycinate ter-cyclopentane] | saturation point for binding of lipid A to 7.1 was not reached | 
2 | COC(=O)[C@@H](N)Cc1c[nH]c2ccccc12 [Compound H2N-Trp-OCH3, tryptophan methyl-ester, reference compound] | not saturatable at the concentrations tested | 
3 | tetra-phenylalaninate ter-cyclopentane [Compound 7.2] | reasonable affinity | 
4 | NC(Cc1c[nH]c2ccccc12)C(=O)OCC1CC(COC(=O)C(N)Cc2c[nH]c3ccccc23)C(C2CCC(C3C(COC(=O)C(N)Cc4c[nH]c5ccccc45)CC(COC(=O)C(N)Cc4c[nH]c5ccccc45)C3COC(=O)c3ccccc3)C2)C1COC(=O)c1ccccc1 (mixture of isomers) [Compound 7.3, tetra-tryptophaninate ter-cyclopentane] |  | greater than the binding affinity of polymyxins
